# Test results as given in patent publication US20190307692A1, “NANOLIPOPROTEIN PARTICLES AND RELATED COMPOSITIONS METHODS AND SYSTEMS FOR IMPROVED DRUG LOADING” (Lawrence Livermore National Security, LLC, priority 2016, published 2019).
# Where a name gives a salt, the structure may show the parent alone.
# Legend:
# [1] = Drug (paclitaxel) loading into NLPs, quantified by reverse phase HPLC after SEC purification; format: physicochemical; settings: for amount of paclitaxel loaded into NLPs (mass of drug over total mass of particle components): NLPs prepared with the named lysophospholipid at 50 mol % content
# Description: For NLP assemblies using DOPC as the membrane forming lipid with apoE422k, the total lipid-to-apoE422K molar ratio was 80:1. Briefly, lipids were either prepared or obtained in chloroform and aliquoted into glass vials. Chloroform was then removed using a stream of N2 under agitation to form a thin lipid film. Lipids were solubilized in PBS buffer (137 mM sodium chloride, 2.7 mM potassium chloride, 10 mM phosphate buffer, pH 7.4) using 30 mM sodium cholate. After addition of the apoE422k (150 μM in final assembly volume), samples were incubated at 23.8° C. for at least 2 hours.
# Assemblies were dialyzed overnight against PBS to remove cholate. Samples were subsequently analyzed and purified by SEC (size exclusion chromatography) (Superdex 200, 10/300 GL column, GE Healthcare, Piscataway, N.J.) in PBS buffer (0.5 mL/min flow rate). The exclusion limit of the column was determined with Blue Dextran 2000. SEC fractions (500 μl) were collected every 60 s. SEC fractions containing homogeneous NLP populations were concentrated using 50 kDa MWCO spin concentrators (Sartorius). The apoE422k concentration was determined using NanoDrop (Thermo Scientific). The concentrated NLP samples were then stored at 4° C. until further use.
# The solution was then spun down to remove any precipitate, and then the supernatant was purified by SEC (GE HiTrap desalting column) in PBS buffer (0.5 ml/min flow rate). The collected fractions containing NLP were then analyzed by reverse phase HPLC to quantify each component of the NLP.
# The ability of the two NLP populations to accommodate the drug of interest, paclitaxel, was then assessed. Following addition of paclitaxel to the two solutions, the NLP solutions were re-purified to remove free paclitaxel. The solutions were then analyzed by reverse phase HPLC to assess the amount of paclitaxel that was incorporated into the particles.
# Further experiments were carried out to assess the relationship between lysophospholipid content and paclitaxel loading. NLPs were prepared with initial lysophospholipid contents (lyso 14:0) between 0 and 70 mole percent (i.e. 0 mol %-70 mol %). After paclitaxel addition and subsequent purification, the composition of these particles was again analyzed using reverse phase HPLC.
# [2] = pH 5, 7 or 9; cited from earlier work
# [3] = compared with lyso 14:0, 16:0 and 18:0; cited from earlier work
smiles,measurement,setting,value
COc1cccc2c1C(=O)c1c(O)c3c(c(O)c1C2=O)C[C@@](O)(C(=O)CO)C[C@@H]3O[C@H]1C[C@H](N)[C@H](O)[C@H](C)O1 [doxorubicin hydrochloride],incorporation in NLPs,[1]; regardless of whether a lysophospholipid is used as part of the drug loading process,does not incorporate to a useful degree
same,LogKow,[2],3.5
"CCCCCCCCCCCCCC(=O)OC[C@@H](O)COP(=O)([O-])OCC[N+](C)(C)C [lyso 14:0, 1-tetradecanoyl-sn-glycero-3-phosphocholine]",amount of paclitaxel loaded into NLPs (mass of drug over total mass of particle components),[1],over 20%
"CCCCCCCC/C=C\CCCCCCCC(=O)OC[C@@H](O)COP(=O)([O-])OCC[N+](C)(C)C [lyso 18:1, 1-(9Z-octadecenoyl)-sn-glycero-3-phosphocholine]",amount of paclitaxel loaded into NLPs (mass of drug over total mass of particle components),[1],least amount
same,aqueous solubility / CMC (in words),[3],lowest solubility
CC(=O)O[C@H]1C(=O)[C@@]2(C)[C@H]([C@H](OC(=O)c3ccccc3)[C@]3(O)C[C@H](OC(=O)[C@H](O)[C@@H](NC(=O)c4ccccc4)c4ccccc4)C(C)=C1C3(C)C)[C@]1(OC(C)=O)CO[C@@H]1C[C@@H]2O [paclitaxel],paclitaxel content in NLPs (mass of drug over total mass of particle components),[1]; 10-20 mol % initial lysophospholipid (lyso 14:0),approximately 5 % by mass
same,paclitaxel loading in NLPs (mass of drug over total mass of particle components),[1]; 30-60 mol % initial lysophospholipid (lyso 14:0),10-20%
same,measured quantity of paclitaxel in NLPs,[1]; 30 mol % lysophospholipid group,about 0.23 micrograms
same,paclitaxel loading in NLPs (mass of drug over total mass of particle components),[1]; 70 mol % initial lysophospholipid (lyso 14:0),> 30 % by mass
same,measured quantity of paclitaxel in NLPs,[1]; 70 mol % lysophospholipid group,about 0.23 micrograms
same,paclitaxel accepted by NLPs from second SEC peak versus larger particles from peak 1,"[1]; NLPs with 40 mol % initial lysophospholipid (lyso 14:0), two SEC populations",substantially more
same,paclitaxel content in NLPs (mass of drug over total mass of particle components),"[1]; NLPs without lysophospholipids (0 mol % lyso 14:0), DOPC/apoE422k",1-2 % by mass of the particle
same,incorporation into NLP,[1]; when aided by lysophospholipid,capable of being incorporated into NLP to a useful mass percent
